In assay [1] the target is T1, HCV polymerase (NS5B) type 1a (Hepatitis C virus genotype 1a, UniProt P26664).
T1 construct: made in house; host or cells: Escherichia coli (by the 'similar method' of the 1b enzyme)
Briefly: Assay of enzyme (HCV polymerase) inhibitory activity, type 1a enzyme. In kind it is biochemical, HCV type 1a (cloned from the blood of patients). The following applies: HCV polymerase inhibitory activity IC50, 1a, type 1a enzyme. An outline of the steps: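 IC50 values derive from radioactivity of newly synthesized RNA with versus without test compound. The enzyme was C-terminally truncated type 1a NS5B, 1.5 μg/ml, run 60 min at 25° C with 3H-UTP-labelled nucleotides.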

Assay [2] deals with T2, HCV polymerase (NS5B) type 1b (Hepatitis C virus genotype 1b, UniProt P26663).
T2 construct: a region encoding NS5B (J Virol 1991 March, 65(3), 1105-13, 544 amino acids after deletion of 47 amino acids on the C-terminal); 6xHis (C); made in house; host or cells: Escherichia coli
In words: Assay of enzyme (HCV polymerase) inhibitory activity, type 1b enzyme. It is filed as biochemical, HCV BK strain (type 1b). The following applies: HCV polymerase inhibitory activity IC50, 1b, type 1b enzyme. An outline of the steps: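 Polymerase activity was followed as radiolabelled UTP incorporation by E. coli-expressed, His-tagged NS5B of HCV type 1b lacking its last 47 residues. Conditions: 2 μM UTP, 50 μM other NTPs, Mg2+ buffer at pH 7.5, 25 °C for 60 min. Inhibition relative to compound-free reactions gave IC50.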

The structures appear in SMILES notation.

As for `CCCCc1ccc(CNC(=O)[C@H]2CN(c3nc4cn[nH]c(=O)c4s3)CCN2S(=O)(=O)c2ccc(OC(F)(F)F)cc2)cc1` [Example 841, (R)-4-(7-oxo-6,7-dihydro-thiazolo[4,5-d]pyridazin-2-yl)-1-(4-trifluoromethoxy-benzenesulfonyl)-piperazine-2-carboxylic acid 4-butyl-benzylamide], the IC50 in assay [1] and in assay [2] was under 100 nM in each case.

Turning to `CCCc1ccc(CNC(=O)[C@H]2CN(c3cnc4cncc(C(=O)O)c4n3)CCN2S(=O)(=O)c2ccc(C(F)(F)F)cc2)cc1` [Example 842, 2-[(R)-3-(4-propyl-benzylcarbamoyl)-4-(4-trifluoromethyl-benzenesulfonyl)-piperazin-1-yl]-pyrido[3,4-b]pyrazine-8-carboxylic acid], the IC50 in assay [1] and in assay [2] was under 100 nM each time.

Take `CCCc1ccc(CNC(=O)[C@H]2CN(c3cnc4cncc(C(=O)O)c4n3)CCN2S(=O)(=O)c2ccc([N+](=O)[O-])cc2)cc1` [Example 843, 2-[(R)-4-(4-nitro-benzenesulfonyl)-3-(4-propyl-benzylcarbamoyl)-piperazin-1-yl]-pyrido[3,4-b]pyrazine-8-carboxylic acid]: the concentration for half-maximal inhibition (IC50) in assay [1] and in assay [2] was under 100 nM throughout.

Take `CCCc1ccc(CNC(=O)[C@H]2CN(c3cnc4cncc(C(=O)O)c4n3)CCN2S(=O)(=O)c2ccc(C(C)(C)C)cc2)cc1` [Example 844, 2-[(R)-4-(4-tert-butyl-benzenesulfonyl)-3-(4-propyl-benzylcarbamoyl)-piperazin-1-yl]-pyrido[3,4-b]pyrazine-8-carboxylic acid]: the IC50 in assay [1] and in assay [2] was under 100 nM in each case.

Regarding `CCCc1ccc(CNC(=O)[C@H]2CN(c3cnc4cncc(C(=O)O)c4n3)CCN2S(=O)(=O)c2ccc(Cl)cc2)cc1` [Example 845, 2-[(R)-4-(4-chloro-benzenesulfonyl)-3-(4-propyl-benzylcarbamoyl)-piperazin-1-yl]-pyrido[3,4-b]pyrazine-8-carboxylic acid], the IC50 in assay [1] and in assay [2] was under 100 nM each time.

As for `CCCc1ccc(CNC(=O)[C@H]2CN(c3nc(C)c(C(=O)C(=O)OCC)s3)CCN2S(=O)(=O)c2ccc(OC(F)(F)F)cc2)cc1` [Example 846, {4-methyl-2-[(R)-3-(4-propyl-benzylcarbamoyl)-4-(4-trifluoromethoxy-benzenesulfonyl)-piperazin-1-yl]-thiazol-5-yl}-oxo-acetic acid ethyl ester], the IC50 in assay [1] was 100 to 1000 nM; in assay [2] it was under 100 nM.

In the case of `CCCc1ccc(CNC(=O)[C@H]2CN(c3nc(Cl)c(C(=O)O)s3)CCN2S(=O)(=O)c2ccc(OC(F)(F)F)cc2)cc1` [Example 847, 4-chloro-2-[(R)-3-(4-propyl-benzylcarbamoyl)-4-(4-trifluoromethoxy-benzenesulfonyl)-piperazin-1-yl]-thiazole-5-carboxylic acid], the IC50 in assay [1] and in assay [2] was under 100 nM in each case.

With `CCCc1ccc(CNC(=O)[C@H]2CN(c3nc(C)c(C(=O)C(=O)O)s3)CCN2S(=O)(=O)c2ccc(OC(F)(F)F)cc2)cc1` [Example 848, {4-methyl-2-[(R)-3-(4-propyl-benzylcarbamoyl)-4-(4-trifluoromethoxy-benzenesulfonyl)-piperazin-1-yl]-thiazol-5-yl}-oxo-acetic acid], the IC50 in assay [1] and in assay [2] was under 100 nM in each case.

As to `O=C(NCC1CC1c1ccccc1)[C@H]1CN(c2cnc3cncnc3n2)CCN1S(=O)(=O)c1ccc(OC(F)(F)F)cc1` (stereo partly drawn) [Example 849, (R)-4-pteridin-7-yl-1-(4-trifluoromethoxy-benzenesulfonyl)-piperazine-2-carboxylic acid (2-phenyl-cyclopropylmethyl)-amide], the IC50 in assay [1] is 100 to 1000 nM; in assay [2] it was under 100 nM.

With `O=C(NCc1ccc(OC(F)(F)F)cc1)[C@H]1CN(c2nc3cn[nH]c(=O)c3s2)CCN1S(=O)(=O)c1ccc(Cl)s1` [Example 850, (R)-1-(5-chloro-thiophene-2-sulfonyl)-4-(7-oxo-6,7-dihydro-thiazolo[4,5-d]pyridazin-2-yl)-piperazine-2-carboxylic acid 4-trifluoromethoxy-benzylamide], the IC50 in assay [1] and in assay [2] was under 100 nM throughout.

Turning to `COCC(C)(C)c1ccc(CNC(=O)[C@H]2CN(c3nc4cn[nH]c(=O)c4s3)CCN2S(=O)(=O)c2ccc(OC(F)(F)F)cc2)cc1` [Example 851, (R)-4-(7-oxo-6,7-dihydro-thiazolo[4,5-d]pyridazin-2-yl)-1-(4-trifluoromethoxy-benzenesulfonyl)-piperazine-2-carboxylic acid 4-(2-methoxy-1,1-dimethyl-ethyl)-benzylamide], the IC50 in assay [1] and in assay [2] was under 100 nM in each case.

As for `CCNC(=O)c1cnc(N2CCN(S(=O)(=O)c3ccc(OC(F)(F)F)cc3)[C@@H](C(=O)NCc3ccc(OC(F)(F)F)cc3)C2)cn1` [Example 852, (R)-4-(4-trifluoromethoxy-benzenesulfonyl)-3,4,5,6-tetrahydro-2H-[1,2′]bipyrazinyl-3,5′-dicarboxylic acid 5′-ethylamide 3-(4-trifluoromethoxy-benzylamide)], the IC50 in assay [1] and in assay [2] was under 100 nM in each case.

In the case of `CC(C)(C)NC(=O)c1cnc(N2CCN(S(=O)(=O)c3ccc(OC(F)(F)F)cc3)[C@@H](C(=O)NCc3ccc(OC(F)(F)F)cc3)C2)cn1` [Example 853, (R)-4-(4-trifluoromethoxy-benzenesulfonyl)-3,4,5,6-tetrahydro-2H-[1,2′]bipyrazinyl-3,5′-dicarboxylic acid 5′-tert-butylamide 3-(4-trifluoromethoxy-benzylamide)], the figures for the IC50 in assay [1] and in assay [2] were over 1000 nM and 100 to 1000 nM, respectively.

As for `CCc1ccc(S(=O)(=O)N2CCN(c3cnc4cncc(C(=O)O)c4n3)C[C@@H]2C(=O)NCc2ccc(C(C)(C)CC)cc2)cc1` [Example 854, 2-[(R)-3-[4-(1,1-dimethyl-propyl)-benzylcarbamoyl]-4-(4-ethyl-benzenesulfonyl)-piperazin-1-yl]-pyrido[3,4-b]pyrazine-8-carboxylic acid], the IC50 in assay [1] and in assay [2] was under 100 nM throughout.

Regarding `CCCCc1ccc(CNC(=O)[C@H]2CN(c3cnc4cncc(C(=O)O)c4n3)CCN2S(=O)(=O)c2ccc(CC)cc2)cc1` [Example 855, 2-[(R)-3-(4-butyl-benzylcarbamoyl)-4-(4-ethyl-benzenesulfonyl)-piperazin-1-yl]-pyrido[3,4-b]pyrazine-8-carboxylic acid], the IC50 in assay [1] and in assay [2] was under 100 nM in each case.

For the compound `CCCc1ccc(CNC(=O)[C@H]2CN(c3nc(C)c(C(O)C(=O)OCC)s3)CCN2S(=O)(=O)c2ccc(OC(F)(F)F)cc2)cc1` (stereo partly drawn) [Example 856, hydroxy-{4-methyl-2-[(R)-3-(4-propyl-benzylcarbamoyl)-4-(4-trifluoromethoxy-benzenesulfonyl)-piperazin-1-yl]-thiazol-5-yl}-acetic acid ethyl ester], the IC50 in assay [1] was 100 to 1000 nM; in assay [2] it was under 100 nM.

Regarding `CCCc1ccc(CNC(=O)[C@H]2CN(c3cnc4cncnc4n3)CCN2S(=O)(=O)c2ccc(OC(F)(F)F)cc2)s1` [Example 857, (R)-4-pteridin-7-yl-1-(4-trifluoromethoxy-benzenesulfonyl)-piperazine-2-carboxylic acid (5-propyl-thiophen-2-ylmethyl)-amide], the IC50 in assay [1] and in assay [2] was under 100 nM throughout.

On to `CCC(C)(C)c1ccc(CNC(=O)[C@H]2CN(c3cnc4cncc(C(=O)O)c4n3)CCN2S(=O)(=O)c2ccc(Cl)s2)cc1` [Example 858, 2-{(R)-4-(5-chloro-thiophene-2-sulfonyl)-3-[4-(1,1-dimethyl-propyl)-benzylcarbamoyl]-piperazin-1-yl}-pyrido[3,4-b]pyrazine-8-carboxylic acid], for which the half-maximal inhibitory concentration (IC50) in assay [1] and in assay [2] was under 100 nM throughout.

For `CCCc1ccc(CNC(=O)[C@H]2CN(c3nc(C)c(C(=O)C(=O)NC)s3)CCN2S(=O)(=O)c2ccc(OC(F)(F)F)cc2)cc1` [Example 859, (R)-4-(4-methyl-5-methylaminooxalyl-thiazol-2-yl)-1-(4-trifluoromethoxy-benzenesulfonyl)-piperazine-2-carboxylic acid 4-propyl-benzylamide], the concentration for half-maximal inhibition (IC50) in assay [1] is 100 to 1000 nM; in assay [2] it was under 100 nM.

Consider `CCCc1ccc(CNC(=O)[C@H]2CN(c3cnc4cncc(C(=O)O)c4n3)CCN2S(=O)(=O)c2ccc(Cl)s2)cc1` [Example 860, 2-[(R)-4-(5-chloro-thiophene-2-sulfonyl)-3-(4-propyl-benzylcarbamoyl)-piperazin-1-yl]-pyrido[3,4-b]pyrazine-8-carboxylic acid], for which the IC50 in assay [1] and in assay [2] was under 100 nM in each case.

Consider `O=C(O)c1cncc2ncc(N3CCN(S(=O)(=O)c4ccc(Cl)s4)[C@@H](C(=O)NCc4ccc(OC(F)(F)F)cc4)C3)nc12` [Example 861, 2-[(R)-4-(5-chloro-thiophene-2-sulfonyl)-3-(4-trifluoromethoxy-benzylcarbamoyl)-piperazin-1-yl]-pyrido[3,4-b]pyrazine-8-carboxylic acid], for which the IC50 in assay [1] and in assay [2] was under 100 nM in each case.

One may read the IC50 as the concentration that inhibits the measured activity by half. Low values mean higher potency, high ones lower potency.
